For 86 compounds, logD results are on record in the SangsterLogP compilation.

For the first data set the following is noted: pH 2.0.
For `COc1ccc([C@@H](C(=O)Nc2ccc3c(c2)OCCO3)N(C)C(=O)Cc2c[nH]c3ccccc23)cc1`, the logD – broadly, lipophilicity at a set pH, counting ionised and neutral species – turned out to be 3.76.

`Cc1cc(C)n2nc(S[C@@H](C)C(=O)NCC(=O)Nc3ccc(F)c(F)c3F)nc2n1` showed a logD of 2.18.

Compound `O=C1[C@@H]2[C@@H]3[C@H]4C[C@H]5[C@@H]3[C@@H]2C2(OCCO2)[C@H]5[C@@H]14` had a logD of 0.51.

The data set is the same for the next values; noted with them: pH 5.0.
`C[C@@H]1CCC[C@H](C)N1C(=O)COC(=O)c1ccc2c(c1)S(=O)(=O)c1ccccc1C2=O`: the logD worked out at 4.39.

As to `O=C(CN1C(=O)c2ccccc2S1(=O)=O)Nc1ccc(S(=O)(=O)N2CCCCCC2)cc1`, the logD was 4.73.

The compound `COc1ccc(C(=O)OCC(=O)c2cc(C)n(C[C@@H]3CCCO3)c2C)c(OC)c1` had a logD of 4.18.

Compound `O=C(/C=C/c1ccccc1)Nc1cccc(NC(=O)c2cccc(Cl)c2)c1` came in with a logD of 5.53.

With `CCOC(=O)c1c(NC(=O)[C@@H]2C[C@H]3CC[C@@H]2C3)sc(C(=O)N(CC)CC)c1C`, the logD is 5.05.

Regarding `O=C1C[C@@H](c2c(F)cccc2Cl)c2cc3c(cc2N1)OCCO3`, the logD was 3.96.

Turning to `CCCOc1ccc(NC(=O)C[C@H]2C(=O)N(c3ccc(Cl)cc3)C(=S)N2C2CC2)cc1`, the logD came out at 5.41.

`COc1ccc(C(=O)/C=C/C=C(Cl)Cl)cc1` returned a logD of 4.4.

Compound `C#CCN1C(=O)[C@H]2CC[C@@](C)(C1=O)C2(C)C` returned a logD of 2.28.

On to `COc1cccc(NC(=O)[C@H](OC(=O)C2=COCCO2)c2ccccc2)c1`, for which the logD is 3.81.

`O=C(Nc1ccc2c(c1)OCO2)[C@@H]1COc2ccccc2O1`: the logD was 3.28.

`C[C@@H](Oc1ccccc1)C(=O)Nc1ccc(OC(F)(F)F)cc1` gave a logD of 4.77.

In the case of `CCCCN1C(=O)c2ccc(C(=O)OCC(=O)N[C@H](C)C(C)C)cc2C1=O`, the logD turned out to be 3.62.

Consider `Cc1ccc(NC(=O)[C@@H]2CCCN2C(=O)OC(C)(C)C)cc1C`, for which the logD is 3.9.

With `Cc1cccc(NC(=O)NC(C)C)c1C`, the logD came to 2.7.

`C[C@H]1CN(C(=O)c2csc3c2CCCC3)/C(=N/c2ccc(Cl)cc2)S1`: the pH-dependent lipophilicity (logD) worked out at 5.53.

On to `O=C(N[C@H](Sc1ncccn1)C(=O)c1ccccc1)c1ccccc1`, for which the logD came to 3.62.

As for `CCCCOc1ccc(/C=C/C(=O)NC(C)C)cc1`, the logD is 4.45.

`CCN(CC)C(=O)[C@@]12CC[C@@](C)(C(=O)O1)C2(C)C` displayed a logD of 2.66.

For `CC1CCN(S(=O)(=O)N2CCC(C(=O)N[C@@H](C)c3ccccc3)CC2)CC1`, the logD came to 4.92.

In turn, `C[C@]12CC[C@@H]3C[C@@]1(C(=O)NCC(F)(F)F)OC[C@@]32C` yielded a logD of 3.11.

For the compound `O=C1/C(=C/c2ccsc2)SC(=S)N1c1cccc(C(F)(F)F)c1`, the logD was found to be 5.8.

Consider `CCOC(=O)C1=C(C)OC(N)=C(C#N)[C@H]1c1cccc(I)c1`, for which the logD worked out at 4.48.

In turn, `N#CC1=C(N)C(C#N)(C#N)[C@@H](c2ccccc2Cl)[C@@H]2CSCC=C12` registered a logD of 4.5.

Regarding `Cc1c(CN(C)C(=O)[C@@H](C)n2nc(C(F)F)c(Br)c2C)cnn1C`, the logD is 3.12.

The compound `COc1ccc(C(=O)/C=C/Nc2ccc(Cl)c(C(F)(F)F)c2)cc1OC` showed a logD of 5.31.

Take `O=C1c2ccccc2C(=O)N1/N=C/c1cc([N+](=O)[O-])ccc1Cl`: the logD turned out to be 4.03.

Consider `O=C(c1nn2c(c1Br)N[C@H](c1cccs1)C[C@H]2C(F)(F)F)N1CCCC1`, for which the logD worked out at 4.47.

Compound `CCOC(=O)c1c(N2C(=O)[C@@H]3CC(C)=C(C)C[C@H]3C2=O)sc(C)c1C` registered a logD of 4.56.

`COc1cccc(C(=O)N2CCC[C@H](c3ccccc3)C2)c1` returned a logD of 4.04.

In the case of `CC1(C)OC[C@H](COc2c(F)c(N3CCOCC3)nc(F)c2Cl)O1`, the logD amounted to 4.07.

`CCOC(=O)c1ccc(C#N)cc1`: the logD is 1.87.

Consider `CCCN(CCC)S(=O)(=O)c1ccc(C(=O)N2CC[C@@H]3c4ccccc4C(=O)N3C2)cc1`, for which the pH-dependent lipophilicity (logD) was 4.55.

The compound `CC(=O)Oc1ccc(C(=O)Nc2cccc(C(=O)c3cccc(NC(=O)c4ccc(OC(C)=O)cc4)c3)c2)cc1` had a logD of 5.34.

Consider `COC(=O)[C@H](CCSC)NC(=O)c1cc2c(n(-c3ccccc3)c1=O)CC(C)(C)CC2=O`, for which the logD turned out to be 3.97.

For `C[C@H](C(=O)NC1CCCC1)N(c1ccc(Cl)cc1)S(C)(=O)=O`, the logD amounted to 3.48.

Turning to `COc1ccc([C@@H]2[C@H](C(=O)N3CCCCCC3)c3ccccc3C(=O)N2Cc2ccc(F)cc2)cc1`, the logD was 5.01.

`COC(=O)N[C@H](O)C(=O)c1ccccc1`: the logD was 1.41.

The same data set, now with this note: pH 6.5.
In turn, `COc1cccc(/C=C/C(=O)OCC(=O)c2cc(C)n(-c3cc(C)on3)c2C)c1` displayed a logD of 5.2.

`O=C([C@H]1CCCO1)N1CCN(C(=S)Nc2ccc(Oc3ccccc3)cc2)CC1` showed a logD of 4.18.

For the compound `Cc1cc2c(cc1C)N[C@@H](c1cc3c(cc1Cl)OCO3)C1=C(CC(C)(C)CC1=O)N2`, the logD is 4.38.

The compound `CN(c1ccccc1)S(=O)(=O)c1ccc(C(=O)/N=c2/sc3cc([N+](=O)[O-])ccc3n2C)cc1` yielded a logD of 5.84.

In turn, `C[C@H]1CCCN(C(=O)COC(=O)COc2cc(Cl)c(Cl)cc2Cl)C1` yielded a logD of 4.97.

The compound `Cc1ccc(CN2C(=O)/C(=C/[C@@H]3CC=CCC3)SC2=S)cc1` returned a logD of 6.26.

The compound `COc1ccccc1N(CCOC(=O)[C@@H]1CC(=O)N(c2ccccc2)C1)C1=NS(=O)(=O)c2ccccc21` showed a logD of 2.5.

Staying with this data set, now noted: pH 7.0.
Regarding `O=C(/C=C/c1ccccc1)Nc1ccc(N2CCN(C(=O)c3cccs3)CC2)cc1`, the logD was determined as 4.94.

Staying with this data set, now noted: pH 7.3.
Turning to `CC(C)[C@@H](C(=O)Nc1nc(-c2ccc(S(=O)(=O)N3CCOCC3)cc2)cs1)N1C(=O)c2ccccc2C1=O`, the logD was 5.32.

For the compound `CC1=NC2=C(C(=O)CCC2)[C@H](c2ccc(Cl)cc2)C1C(=O)OCCc1ccccc1` (stereo partly specified), the logD came to 5.48.

`O=C1C(=O)N(OCc2ccc(Br)cc2)[C@H]2CCCC[C@@H]2N1OCc1ccc(Br)cc1` showed a logD of 5.49.

The compound `CCCCOC(=O)C1=C(C)NC2=C(C(=O)CCC2)[C@H]1c1ccccc1OC` yielded a logD of 4.21.

In turn, `CC1(C)[C@@]2(C)CC[C@]1(C(=O)Nc1ccccc1C(F)(F)F)c1nc3ccccc3nc12` came in with a logD of 6.01.

In turn, `CCCn1c2ccccc2c2nnc(SCC(=O)N[C@H](C)c3ccccc3)nc21` registered a logD of 4.36.

As for `Cc1cc(C)nc(-n2nc(C)c3c2NC2=CC(C)(C)CC(=O)[C@H]2[C@@H]3c2ccco2)n1`, the logD turned out to be 4.34.

Still in this data set, the particulars now being: pH 8.0.
`CCc1cccc(C)c1N(C(=O)Cn1c([C@@H](C)O)nc2ccccc21)[C@@H](C)COC` yielded a logD of 4.48.

In the case of `COC(=O)c1c(N[C@@H](NC(C)=O)C(Cl)(Cl)Cl)sc2c1CCCC2`, the logD is 5.04.

Regarding `CC[C@H]1CS/C(=N\c2cccc(C)c2)N1C(=O)CCN1C(=O)c2ccccc2C1=O`, the logD amounted to 4.96.

As for `COc1cc(/C=C/C(=O)Nc2ccc(N3CCCCC3)cc2)ccc1OC(F)F`, the logD amounted to 5.36.

Still in this data set, the particulars now being: pH 10.0.
Take `Cc1ccc(Cl)c(OCc2ccc(-c3nc4c5c[nH]nc5ncn4n3)o2)c1`: the logD amounted to 4.4.

Regarding `CC[C@@H](SC1=Nc2ccccc2C2=N[C@@H](Cc3ccccc3)C(=O)N12)C(=O)N1CCOCC1`, the logD worked out at 3.95.

In turn, `O=C1[C@@H]2C3c4ccccc4C(c4ccccc43)[C@@H]2C(=O)N1c1nccs1` displayed a logD of 3.83.

`CCSCCOC(=O)C1=C(C)NC2=C(C(=O)C[C@@H](c3cccs3)C2)[C@H]1c1ccc2c(c1)OCO2` returned a logD of 5.

As for `CCn1c(SCC(=O)NC(C)(C)C)nnc1C1CCCCC1`, the logD stood at 3.2.

With `O=[N+]([O-])c1ccccc1/C=N/c1ccc(/N=C/c2ccccc2[N+](=O)[O-])cc1`, the logD was 2.95.

`CCOC(=O)C1=C(C)NC2=C(C(=O)C[C@H](c3ccc(OC)c(OC)c3)C2)[C@H]1c1ccccc1OC` registered a logD of 3.79.

Compound `CCOCc1c(C)cc(C)c([C@@H]2C(C#N)=C(N)Oc3[nH]nc(C)c32)c1C` gave a logD of 4.09.

In the case of `CCSCCOC(=O)C1=C(C)NC2=C(C(=O)C[C@@H](c3cccs3)C2)[C@@H]1c1ccc(C(=O)OC)cc1`, the logD amounted to 5.24.

In the case of `CC1=C(C(=O)OC[C@@H]2CCCO2)[C@H](c2cc([N+](=O)[O-])ccc2Cl)C2=C(CC(C)(C)CC2=O)N1`, the logD was 4.53.

Compound `CC(C)OC(=O)C1=C(CSc2nc3c(cc2C#N)CCCCC3)OC(N)=C(C#N)[C@@H]1c1ccncc1` yielded a logD of 5.43.

With `NC(=O)c1cc(N2C(=O)[C@H]3CC=CC[C@@H]3C2=O)ccc1N1CCCCC1`, the logD came to 3.68.

On to `CCCCSC1=C(C#N)[C@H](c2cccc([N+](=O)[O-])c2)C(C(C)=O)=C(C)N1`, for which the logD came to 4.44.

`CC1=C(C(=O)OCCc2ccccc2)[C@@H](c2ccc3c(c2)OCO3)C2=C(C[C@H](c3cccs3)CC2=O)N1` came in with a logD of 5.44.

Still in this data set, the particulars now being: pH 10.5.
For the compound `C[C@@H](c1nc2c3cnn(-c4ccccc4)c3ncn2n1)n1cc([N+](=O)[O-])cn1`, the logD is 3.73.

In the case of `N#CC1=C(N)Oc2c(c(=O)oc3ccccc23)[C@H]1c1cccs1`, the logD stood at 2.34.

For `C=CCn1/c(=N/C(=O)c2cc(OC)c(OC)c(OC)c2)sc2cccc(OC)c21`, the logD is 5.14.

`COc1ccc(N2C(=O)C[C@@H](Sc3nc(C)cc(C)n3)C2=O)cc1OC`: the logD worked out at 2.95.

Compound `CCOc1ccc(N2CN=c3s/c(=C\c4cc(OC)c(OC)cc4[N+](=O)[O-])c(=O)n3C2)cc1` showed a logD of 4.93.

Consider `CCOc1ccc(C2=NN=C3OC(N)=C(C#N)[C@@H](c4ccco4)[C@@H]32)c(OCC)c1`, for which the log distribution coefficient (logD) turned out to be 4.48.

In turn, `Cc1ccc(NCc2ccc3n2C/C(=C2/CCn4c(CNc5ccc(C)cc5)ccc42)C3=O)cc1` gave a logD of 6.51.

In the case of `CC(=O)C1=C(C)NC(SCC(=O)c2ccc(Cl)cc2Cl)=C(C#N)[C@@H]1c1cccs1`, the logD is 5.25.

Compound `OC[C@@H](O)Cn1c(SCCSc2nc3ccccc3n2C[C@H](O)CO)nc2ccccc21` displayed a logD of 3.29.

`N#C/C(=C/c1ccc2c(c1)OCO2)C(=O)N=C1c2ccccc2CN1c1cccc([N+](=O)[O-])c1` returned a logD of 5.4.

Regarding `CC1(C)CC(=O)C2=C(C1)OC(N)=C(C#N)[C@H]2c1c2ccccc2cc2ccccc12`, the log distribution coefficient (logD) was found to be 4.99.

As to `Cc1ccc([C@@H](O)C#CC(O)(c2ccccc2)c2ccccc2)o1`, the logD was 3.53.
